Test results from the NIST ThermoML archive (doi:10.1021/je030102f).
± gives the expanded uncertainty stated by the source.

Columns and labels:
[1] = 101.33 kPa, Liquid, vibrating tube
[2] = xn = mol fraction of the nth substance listed; conditions: 101.33 kPa, Liquid, vibrating tube

Compound: CC(C)=O [acetone]
- mass density ([1]; 283.15 K): 801.669 ± 0.14 kg/m3
- mass density ([1]; 288.15 K): 796.037 ± 0.14 kg/m3
- mass density ([1]; 293.15 K): 790.355 ± 0.14 kg/m3
- mass density ([1]; 298.15 K): 784.638 ± 0.14 kg/m3
- mass density ([1]; 303.14 K): 778.876 ± 0.14 kg/m3
- mass density ([1]; 308.15 K): 773.065 ± 0.14 kg/m3
- mass density ([1]; 313.14 K): 767.205 ± 0.14 kg/m3
- mass density ([1]; 318.14 K): 761.288 ± 0.14 kg/m3
- mass density ([1]; 323.14 K): 755.314 ± 0.14 kg/m3

Compound: CC(C)=O [acetone] + CCC(=O)O
- mass density ([2]; 283.15 K, x1 = 1): 801.669 ± 0.14 kg/m3
- mass density ([2]; 288.15 K, x1 = 1): 796.037 ± 0.14 kg/m3
- mass density ([2]; 293.15 K, x1 = 1): 790.355 ± 0.14 kg/m3
- mass density ([2]; 298.15 K, x1 = 1): 784.638 ± 0.14 kg/m3
- mass density ([2]; 303.14 K, x1 = 1): 778.876 ± 0.14 kg/m3
- mass density ([2]; 308.15 K, x1 = 1): 773.065 ± 0.14 kg/m3
- mass density ([2]; 313.14 K, x1 = 1): 767.205 ± 0.14 kg/m3
- mass density ([2]; 318.14 K, x1 = 1): 761.288 ± 0.14 kg/m3
- mass density ([2]; 323.14 K, x1 = 1): 755.314 ± 0.14 kg/m3

Compound: CCC(=O)O [propanoic acid]
- mass density ([1]; 283.15 K): 1004.11 ± 0.51 kg/m3
- mass density ([1]; 288.15 K): 998.688 ± 0.51 kg/m3
- mass density ([1]; 293.15 K): 993.261 ± 0.51 kg/m3
- mass density ([1]; 298.15 K): 987.847 ± 0.51 kg/m3
- mass density ([1]; 303.14 K): 982.44 ± 0.5 kg/m3
- mass density ([1]; 308.15 K): 977.037 ± 0.5 kg/m3
- mass density ([1]; 313.14 K): 971.635 ± 0.5 kg/m3
- mass density ([1]; 318.14 K): 966.24 ± 0.49 kg/m3
- mass density ([1]; 323.15 K): 960.843 ± 0.49 kg/m3

Compound: O [water]
- mass density ([1]; 283.15 K): 999.691 ± 0.082 kg/m3
- mass density ([1]; 318.14 K): 990.13 ± 0.084 kg/m3
- mass density ([1]; 323.14 K): 988.003 ± 0.084 kg/m3

Compound: O [water] + CC(C)=O
- mass density ([2]; 283.15 K, x2 = 0): 999.691 ± 0.082 kg/m3
- mass density ([2]; 318.14 K, x2 = 0): 990.13 ± 0.084 kg/m3
- mass density ([2]; 323.14 K, x2 = 0): 988.003 ± 0.084 kg/m3

Compound: O [water] + CCC(=O)O
- mass density ([2]; 283.15 K, x2 = 0): 999.691 ± 0.082 kg/m3
- mass density ([2]; 318.14 K, x2 = 0): 990.13 ± 0.084 kg/m3
- mass density ([2]; 323.14 K, x2 = 0): 988.003 ± 0.084 kg/m3
